According to patent US20230346670A1, “Prebiotic Oral Care Compositions and Methods” (Colgate-Palmolive Company, priority 2020, published 2023):
Where “and” joins values, the source holds several entries; their conditions need not be identical. Equal values may be shown once. Marks after values point to notes of the source that are not given here.

Legend:
Format in all cases: cell-based
multi-species biofilms = assay: Organic acid levels in supernatant of multi-species biofilms (ion chromatography); conditions: >0 production, <0 consumption, n = 3
Experimental: (§1) Biofilms are grown vertically on Calcium Deficient Hydroxyapatite (CAD-HA) disks (Hitemco Medical, Old Bethpage, USA) using the Amsterdam Active Adhesion model. Biofilms are allowed to establish during 24 h (37° C., 170 rpm) under microaerophilic conditions (6% O2, 7% CO2, 7% H2, 80% N2). After this 24 h, disks are rinsed 3 times a day for 3 minutes (RT, 250 rpm), for 3 consecutive days, by transferring the lid containing the disks to a new 24-well plate containing 2 mL/well of the appropriate substrate solution. As a negative control, PBS (pH 5.7) without substrate supplementation is used.
Levels of organic acids in the filter sterilized supernatant of the multi-species biofilms are measured using a 761 Compact Ion Chromatograph (Metrhohm, Switzerland) with a Metrosep Organic acids Guard/4.6 guard column. The supernatants from the substrate-treated multi-species biofilms are analyzed to gain more insight into the influence of the substrates on organic acid consumption/production.

S. gordonii = assay: Multi-species biofilm composition, absolute abundance (Geq/mL); conditions: repeated rinsing
Experimental: as §1
(§2) N-acetyl-D-glucosamine (NADG), α-D-lactose, D-(+)-trehalose and D-(+)-raffinose are selected to determine their effects on multi-species biofilm composition. Repeated rinsing of the biofilms with the substrates at a concentration of 1 M results in a significant decrease in absolute numbers in at least four of the pathogenic bacterial species tested in the assay, in comparison to the control, the results of which are described in Table 1 below. Note, NADG decreased absolute numbers of S. sobrinus. Absolute abundances of bacterial species are shown as mean ± SD (n = 3) logarithmic values of the genome equivalents per millilitre (log(Geq/mL)).

A. actinomycetemcomitans = assay: as above; conditions: repeated rinsing
Experimental: as §1, §2

S. oralis = assay: as above; conditions: repeated rinsing
Experimental: as §1, §2

P. gingivalis = assay: as above; conditions: repeated rinsing
Experimental: as §1, §2

P. intermedia = assay: as above; conditions: repeated rinsing
Experimental: as §1, §2

S. sobrinus = assay: as above; conditions: repeated rinsing
Experimental: as §1, §2

A. naeslundii = assay: as above; conditions: repeated rinsing
Experimental: as §1, §2

S. mitis = assay: as above; conditions: repeated rinsing
Experimental: as §1, §2

[1] = tested on: P. intermedia virulence genes; assay: Virulence gene expression in multi-species biofilm (SYBR RT-qPCR); conditions: relative to control = 1
Experimental: as §1
The virulence of the substrate-treated multi-species biofilms are evaluated by analyzing the relative expression of 33 genes that are recognized as being related to some form of virulence and from 4 periodontal pathogens.
Expression of bacterial virulence genes is analyzed through SYBR RT-qPCR and normalized for bacterial housekeeping gene expression. […] These effects are illustrated in Tables 6a and 6b:
Note, for Table 6d, fold changes in virulence gene expression are determined relatively to the control condition through the 2^^-ΔΔCt method and are shown as the geometric mean (C.I.) (n = 3) of the 2^^-ΔΔCt values. All substrates are dissolved in PBS at a concentration of 1 M (upper part) or 1%(w/v) (lower part). Values between 0 and 1 represent relative downregulation, values >1 represent relative upregulation. […] NADG: N-acetyl-D-glucosamine; C.I.: 95% confidence interval.

[2] = tested on: human oral keratinocytes (HOK-18A); assay: Inflammatory mediator gene expression in keratinocytes exposed to substrate-treated biofilms (SYBR RT-qPCR); conditions: relative to control, n = 3
Experimental: Cultures of immortalized human oral keratinocytes (HOK-18A) are grown. […] The IL-8 levels in the cellular supernatant are determined as well. RNA is converted to cDNA and relative expression of inflammatory mediator genes is determined as described above with respect to the cellular housekeeping gene β-actin.
In HOKs exposed to substrate-treated (substrate concentrations of […]) multi-species biofilms, there are mostly decreases in inflammatory mediator gene expression as measured via SYBR RT-qPCR, the results of which are detailed in Table 7:
Fold changes in inflammatory mediator gene expression from human oral keratinocytes (HOK-18A) exposed to substrate-treated multi-species biofilms are determined relatively to the control through the 2^^-ΔΔCt method and are shown as the geometric mean (C.I.) (n = 3) of the 2^^-ΔΔCt values. All substrates are dissolved in PBS at a concentration of 1 M (upper part) or 1%(w/v) (lower part). Values between 0 and 1 represent relative downregulation, values >1 represent relative upregulation.

[3] = lower part of Table 6d, head prints 1 M (lower part 1%(w/v))
[4] = upper part of Table 6d, substrate 1 M, n = 3
[5] = HOK-18A exposed to biofilms treated with substrate 1% (w/v)
[6] = HOK-18A exposed to biofilms treated with substrate 1 M

**Q.** Which results are given for CC(=O)N[C@H]1C(O)O[C@H](CO)[C@@H](O)[C@@H]1O (stereo partly drawn) [NADG, N-acetyl-D-glucosamine]?
**A.** acetate level in biofilm supernatant, mean ± SD (multi-species biofilms; substrate 1% (w/v)): 379 ± 10 mg/L; butyrate level in biofilm supernatant, mean ± SD (multi-species biofilms; substrate 1% (w/v)): 2238 ± 59 mg/L; formate level in biofilm supernatant, mean ± SD (multi-species biofilms; substrate 1% (w/v)): 4315 ± 198 mg/L; lactate level in biofilm supernatant, mean ± SD (multi-species biofilms; substrate 1% (w/v)): -125 ± 0 mg/L; propionate level in biofilm supernatant, mean ± SD (multi-species biofilms; substrate 1% (w/v)): 2205 ± 89 mg/L; acetate level in biofilm supernatant, mean ± SD (multi-species biofilms; substrate 1 M): 3815 ± 77 mg/L; butyrate level in biofilm supernatant, mean ± SD (multi-species biofilms; substrate 1 M): 1255±51 mg/L and 1255 ± 51^∗ mg/L; formate level in biofilm supernatant, mean ± SD (multi-species biofilms; substrate 1 M): 352 ± 18 mg/L; lactate level in biofilm supernatant, mean ± SD (multi-species biofilms; substrate 1 M): -125 ± 0 mg/L; propionate level in biofilm supernatant, mean ± SD (multi-species biofilms; substrate 1 M): 2750±40 mg/L and 2750 ± 40^∗ mg/L; absolute abundance of S. gordonii, mean ± SD log (Geq/mL) (S. gordonii; substrate 1% (w/v)): 8.33 ± 0.06 log (Geq/mL); absolute abundance of S. gordonii, mean ± SD log (Geq/mL) (S. gordonii; substrate 1 M in PBS, n = 3): 9.80 ± 0.22^∗ log (Geq/mL); absolute abundance of A. actinomycetemcomitans (Aa), mean ± SD log (Geq/mL) (A. actinomycetemcomitans; substrate 1% (w/v)): 9.11 ± 0.2 log (Geq/mL); absolute abundance of A. actinomycetemcomitans (Aa), mean ± SD log (Geq/mL) (A. actinomycetemcomitans; substrate 1 M in PBS, n = 3): 8.15 ± 0.21^∗ log (Geq/mL); absolute abundance of S. oralis, mean ± SD log (Geq/mL) (S. oralis; substrate 1% (w/v)): 7.11 ± 0.14 log (Geq/mL); absolute abundance of S. oralis, mean ± SD log (Geq/mL) (S. oralis; substrate 1 M in PBS, n = 3): 7.96 ± 0.59 log (Geq/mL); absolute abundance of P. gingivalis (Pg), mean ± SD log (Geq/mL) (P. gingivalis; substrate 1% (w/v)): 7.14 ± 0.28 log (Geq/mL); absolute abundance of P. gingivalis (Pg), mean ± SD log (Geq/mL) (P. gingivalis; substrate 1 M in PBS, n = 3): 4.43 ± 0.14^∗ log (Geq/mL); absolute abundance of P. intermedia (Pi), mean ± SD log (Geq/mL) (P. intermedia; substrate 1% (w/v)): 8.17 ± 0.22 log (Geq/mL); absolute abundance of P. intermedia (Pi), mean ± SD log (Geq/mL) (P. intermedia; substrate 1 M in PBS, n = 3): 4.09 ± 0.16^∗ log (Geq/mL); absolute abundance of S. sobrinus, mean ± SD log (Geq/mL) (S. sobrinus; substrate 1% (w/v)): 4.87 ± 0.22 log (Geq/mL); absolute abundance of S. sobrinus, mean ± SD log (Geq/mL) (S. sobrinus; substrate 1 M in PBS, n = 3): 3.46 ± 0.19^∗ log (Geq/mL); absolute abundance of A. naeslundii (An), mean ± SD log (Geq/mL) (A. naeslundii; substrate 1% (w/v)): 7.71 ± 0.12 log (Geq/mL); absolute abundance of A. naeslundii (An), mean ± SD log (Geq/mL) (A. naeslundii; substrate 1 M in PBS, n = 3): 5.41 ± 0.31^∗ log (Geq/mL); absolute abundance of S. mitis, mean ± SD log (Geq/mL) (S. mitis; substrate 1% (w/v)): 2.65 ± 0.00 log (Geq/mL); absolute abundance of S. mitis, mean ± SD log (Geq/mL) (S. mitis; substrate 1 M in PBS, n = 3): 3.38 ± 1.04 log (Geq/mL); fold change in DnaJ expression, geometric mean (95% C.I.) [1, 3]: 0.70 (0.50-0.99) fold; fold change in DnaK expression, geometric mean (95% C.I.) [1, 3]: 0.77 (0.34-1.77) fold; fold change in ECF expression, geometric mean (95% C.I.) [1, 3]: 0.48 (0.11-2.02) fold; fold change in GroES expression, geometric mean (95% C.I.) [1, 3]: 0.75 (0.49-1.14) fold; fold change in HtpG expression, geometric mean (95% C.I.) [1, 3]: 0.46 (0.22-0.94)* fold; fold change in KpsD expression, geometric mean (95% C.I.) [1, 3]: 0.78 (0.37-1.62) fold; fold change in adpc expression, geometric mean (95% C.I.) [1, 3]: 0.67 (0.64-0.69) fold; fold change in clpB expression, geometric mean (95% C.I.) [1, 3]: 1.06 (0.58-1.96) fold; fold change in inpA expression, geometric mean (95% C.I.) [1, 3]: 0.53 (0.24-1.17)* fold; fold change in phg expression, geometric mean (95% C.I.) [1, 3]: 0.69 (0.47-1.00) fold; fold change in DnaJ expression, geometric mean (95% C.I.) [1, 4]: 0.64 (0.35-1.16) fold; fold change in DnaK expression, geometric mean (95% C.I.) [1, 4]: 2.34 (1.23-4.43)* fold; fold change in ECF expression, geometric mean (95% C.I.) [1, 4]: 20.32 (4.81-85.88)^∗ fold; fold change in GroES expression, geometric mean (95% C.I.) [1, 4]: 1.86 (1.38-2.50) fold; fold change in HtpG expression, geometric mean (95% C.I.) [1, 4]: 3.40 (2.27-5.08)* fold; fold change in KpsD expression, geometric mean (95% C.I.) [1, 4]: 1.72 (0.62-4.72) fold; fold change in adpc expression, geometric mean (95% C.I.) [1, 4]: 2.65 (1.25-5.62)* fold; fold change in clpB expression, geometric mean (95% C.I.) [1, 4]: 2.03 (0.94-4.41) fold; fold change in inpA expression, geometric mean (95% C.I.) [1, 4]: 4.52 (4.14-4.94)^∗ fold; fold change in phg expression, geometric mean (95% C.I.) [1, 4]: 0.57 (0.38-0.85)* fold; fold change in IL-1β gene expression, geometric mean (C.I.) [2, 5]: 0.71 (0.38-1.33)^∗ fold; fold change in IL-6 gene expression, geometric mean (C.I.) [2, 5]: 0.73 (0.58-0.93)^∗ fold; fold change in IL-8 gene expression, geometric mean (C.I.) [2, 5]: 1.00 (0.78-1.27) fold; fold change in MMP-8 gene expression, geometric mean (C.I.) [2, 5]: 0.52 (0.17-1.6)^∗ fold; fold change in TNF-α gene expression, geometric mean (C.I.) [2, 5]: 0.71 (0.28-1.35)^∗ fold; fold change in IL-1β gene expression, geometric mean (C.I.) [2, 6]: 0.75 (0.55-1.02) fold; fold change in IL-6 gene expression, geometric mean (C.I.) [2, 6]: 0.57 (0.46-0.71) fold; fold change in IL-8 gene expression, geometric mean (C.I.) [2, 6]: 0.14 (0.06-0.36)^∗ fold; fold change in MMP-8 gene expression, geometric mean (C.I.) [2, 6]: 1.28 (0.79-2.08) fold; fold change in TNF-α gene expression, geometric mean (C.I.) [2, 6]: 0.89 (0.59-1.34) fold
